Species: Rattus norvegicus
Assay: DrugMatrix - Regimen: Daily Repeat
Format: toxicity, organism-based, Sprague-Dawley
Design: regimen Daily Repeat, gender Male, age 6-8 weeks
Settings: in vivo, po, route oral GAVAGE; for ALANINE AMINOTRANSFERASE / ALBUMIN / ALKALINE PHOSPHATASE / ASPARTATE AMINOTRANSFERASE / BLOOD UREA NITROGEN / CARBON DIOXIDE / CHLORIDE / CHOLESTEROL / CREATININE / GLUCOSE / LIPASE / PHOSPHORUS / POTASSIUM / SODIUM / TOTAL BILIRUBIN / CREATINE PHOSPHOKINASE / LACTATE DEHYDROGENASE / TOTAL PROTEIN / URIC ACID: tissue Plasma; for ABSOLUTE BASOPHIL / ABSOLUTE EOSINOPHIL / ABSOLUTE LYMPHOCYTE / ABSOLUTE MONOCYTE / ABSOLUTE SEGMENTED NEUTROPHIL / BASOPHIL / EOSINOPHIL / ERYTHROCYTE COUNT / HEMATOCRIT / HEMOGLOBIN / LEUKOCYTE COUNT / LYMPHOCYTE / MEAN CORPUSCULAR HEMOGLOBIN / MEAN CORPUSCULAR HEMOGLOBIN CONCENTRATION / MEAN CORPUSCULAR VOLUME / MONOCYTE / NEUTROPHIL / NUCLEATED RED BLOOD CELLS / PLATELET COUNT: tissue Blood
[1] = 7 mg/kg, 96 h, dose level M1, time 4 day, […]
[2] = 12 mg/kg, 72 h, dose level High, time 3 day, vehicle 100 % WATER
[3] = 12 mg/kg, 120 h, dose level High, time 5 day, vehicle 100 % WATER
[4] = […], 72 h, dose 9.6 mg/Kg, dose level M1, time 3 day, vehicle 100 % WATER
[5] = […], 120 h, dose 9.6 mg/Kg, dose level M1, time 5 day, vehicle 100 % WATER

COc1ccc2c(c1)c(CC(=O)O)c(C)n2C(=O)c1ccc(Cl)cc1 [INDOMETHACIN]
ALANINE AMINOTRANSFERASE [1]: 65.33 u/L
ALBUMIN [1]: 2.67 G/DL
ALKALINE PHOSPHATASE [1]: 487 u/L
ASPARTATE AMINOTRANSFERASE [1]: 260 u/L
BLOOD UREA NITROGEN [1]: 49.33 mg/dL
CARBON DIOXIDE [1]: 24.3 mmol/L
CHLORIDE [1]: 100 MEQ/L
CHOLESTEROL [1]: 61.33 mg/dL
CREATININE [1]: 0.3 mg/dL
GLUCOSE [1]: 83 mg/dL
LIPASE [1]: 296.67 u/L
PHOSPHORUS [1]: 8.35 mg/dL
POTASSIUM [1]: 5.5 MEQ/L
SODIUM [1]: 138 MEQ/L
TOTAL BILIRUBIN [1]: 0.09 mg/dL
ABSOLUTE BASOPHIL [2]: 0 CELLS/uL
ABSOLUTE EOSINOPHIL [2]: 64 CELLS/uL
ABSOLUTE LYMPHOCYTE [2]: 7403 CELLS/uL
ABSOLUTE MONOCYTE [2]: 98 CELLS/uL
ABSOLUTE SEGMENTED NEUTROPHIL [2]: 468.33 CELLS/uL
BASOPHIL [2]: 0%
EOSINOPHIL [2]: 0.67%
ERYTHROCYTE COUNT [2]: 2.59 x10E6/uL
HEMATOCRIT [2]: 16.8%
HEMOGLOBIN [2]: 6.83 G/DL
LEUKOCYTE COUNT [2]: 8.03 x10E3/uL
LYMPHOCYTE [2]: 93.33%
MEAN CORPUSCULAR HEMOGLOBIN [2]: 26.43 pg
MEAN CORPUSCULAR HEMOGLOBIN CONCENTRATION [2]: 40.53 G/DL
MEAN CORPUSCULAR VOLUME [2]: 65.07 fL
MONOCYTE [2]: 1%
NEUTROPHIL [2]: 5%
NUCLEATED RED BLOOD CELLS [2]: 2.67 /100WBC
PLATELET COUNT [2]: 714.67 x10E3/uL
ALANINE AMINOTRANSFERASE [2]: 21 u/L
ALBUMIN [2]: 1.93 G/DL
ALKALINE PHOSPHATASE [2]: 177.67 u/L
ASPARTATE AMINOTRANSFERASE [2]: 46.33 u/L
BLOOD UREA NITROGEN [2]: 15.33 mg/dL
CARBON DIOXIDE [2]: 27 mmol/L
CHLORIDE [2]: 104.33 MEQ/L
CHOLESTEROL [2]: 69.67 mg/dL
CREATINE PHOSPHOKINASE [2]: 148.33 u/L
CREATININE [2]: 0.1 mg/dL
GLUCOSE [2]: 146.67 mg/dL
LACTATE DEHYDROGENASE [2]: 36 u/L
LIPASE [2]: 8.33 u/L
PHOSPHORUS [2]: 11 mg/dL
POTASSIUM [2]: 4.8 MEQ/L
SODIUM [2]: 143.4 MEQ/L
TOTAL BILIRUBIN [2]: 0.1 mg/dL
TOTAL PROTEIN [2]: 4.5 G/DL
URIC ACID [2]: 0.53 mg/dL
ABSOLUTE BASOPHIL [3]: 0 CELLS/uL
ABSOLUTE EOSINOPHIL [3]: 18.5 CELLS/uL
ABSOLUTE LYMPHOCYTE [3]: 2977 CELLS/uL
ABSOLUTE MONOCYTE [3]: 109 CELLS/uL
ABSOLUTE SEGMENTED NEUTROPHIL [3]: 495.5 CELLS/uL
BASOPHIL [3]: 0%
EOSINOPHIL [3]: 0.5%
ERYTHROCYTE COUNT [3]: 3.63 x10E6/uL
HEMATOCRIT [3]: 21.7%
HEMOGLOBIN [3]: 9.1 G/DL
LEUKOCYTE COUNT [3]: 3.6 x10E3/uL
LYMPHOCYTE [3]: 83%
MEAN CORPUSCULAR HEMOGLOBIN [3]: 25 pg
MEAN CORPUSCULAR HEMOGLOBIN CONCENTRATION [3]: 41.8 G/DL
MEAN CORPUSCULAR VOLUME [3]: 59.9 fL
MONOCYTE [3]: 3%
NEUTROPHIL [3]: 13.5%
NUCLEATED RED BLOOD CELLS [3]: 1.5 /100WBC
PLATELET COUNT [3]: 1098.5 x10E3/uL
ALANINE AMINOTRANSFERASE [3]: 17 u/L
ALBUMIN [3]: 2.1 G/DL
ALKALINE PHOSPHATASE [3]: 366 u/L
ASPARTATE AMINOTRANSFERASE [3]: 84 u/L
BLOOD UREA NITROGEN [3]: 37 mg/dL
CARBON DIOXIDE [3]: 26 mmol/L
CHLORIDE [3]: 108 MEQ/L
CHOLESTEROL [3]: 66 mg/dL
CREATINE PHOSPHOKINASE [3]: 224 u/L
CREATININE [3]: 0.1 mg/dL
GLUCOSE [3]: 132.5 mg/dL
LACTATE DEHYDROGENASE [3]: 83.5 u/L
LIPASE [3]: 12.5 u/L
PHOSPHORUS [3]: 11.15 mg/dL
POTASSIUM [3]: 5.62 MEQ/L
SODIUM [3]: 146.9 MEQ/L
TOTAL BILIRUBIN [3]: 0.15 mg/dL
TOTAL PROTEIN [3]: 4.7 G/DL
URIC ACID [3]: 0.45 mg/dL
ABSOLUTE BASOPHIL [4]: 0 CELLS/uL
ABSOLUTE EOSINOPHIL [4]: 39.33 CELLS/uL
ABSOLUTE LYMPHOCYTE [4]: 13009.33 CELLS/uL
ABSOLUTE MONOCYTE [4]: 145.33 CELLS/uL
ABSOLUTE SEGMENTED NEUTROPHIL [4]: 3406 CELLS/uL
BASOPHIL [4]: 0%
EOSINOPHIL [4]: 0.33%
ERYTHROCYTE COUNT [4]: 4.19 x10E6/uL
HEMATOCRIT [4]: 26.67%
HEMOGLOBIN [4]: 10.63 G/DL
LEUKOCYTE COUNT [4]: 16.6 x10E3/uL
LYMPHOCYTE [4]: 78.33%
MEAN CORPUSCULAR HEMOGLOBIN [4]: 25.53 pg
MEAN CORPUSCULAR HEMOGLOBIN CONCENTRATION [4]: 40 G/DL
MEAN CORPUSCULAR VOLUME [4]: 63.8 fL
MONOCYTE [4]: 1%
NEUTROPHIL [4]: 20.33%
NUCLEATED RED BLOOD CELLS [4]: 0 /100WBC
PLATELET COUNT [4]: 984.67 x10E3/uL
ALANINE AMINOTRANSFERASE [4]: 50.33 u/L
ALBUMIN [4]: 3.17 G/DL
ALKALINE PHOSPHATASE [4]: 197.33 u/L
ASPARTATE AMINOTRANSFERASE [4]: 77.33 u/L
BLOOD UREA NITROGEN [4]: 13.33 mg/dL
CARBON DIOXIDE [4]: 26 mmol/L
CHLORIDE [4]: 102.67 MEQ/L
CHOLESTEROL [4]: 72.33 mg/dL
CREATINE PHOSPHOKINASE [4]: 564.67 u/L
CREATININE [4]: 0.3 mg/dL
GLUCOSE [4]: 162.33 mg/dL
LACTATE DEHYDROGENASE [4]: 111.33 u/L
LIPASE [4]: 11.67 u/L
PHOSPHORUS [4]: 10.83 mg/dL
POTASSIUM [4]: 5.33 MEQ/L
SODIUM [4]: 141.3 MEQ/L
TOTAL BILIRUBIN [4]: 0.1 mg/dL
TOTAL PROTEIN [4]: 5.07 G/DL
URIC ACID [4]: 1.23 mg/dL
ABSOLUTE BASOPHIL [5]: 0 CELLS/uL
ABSOLUTE EOSINOPHIL [5]: 0 CELLS/uL
ABSOLUTE LYMPHOCYTE [5]: 4773 CELLS/uL
ABSOLUTE MONOCYTE [5]: 34 CELLS/uL
ABSOLUTE SEGMENTED NEUTROPHIL [5]: 943 CELLS/uL
BASOPHIL [5]: 0%
EOSINOPHIL [5]: 0%
ERYTHROCYTE COUNT [5]: 4.33 x10E6/uL
HEMATOCRIT [5]: 26.75%
HEMOGLOBIN [5]: 10.7 G/DL
LEUKOCYTE COUNT [5]: 5.75 x10E3/uL
LYMPHOCYTE [5]: 81%
MEAN CORPUSCULAR HEMOGLOBIN [5]: 24.7 pg
MEAN CORPUSCULAR HEMOGLOBIN CONCENTRATION [5]: 40 G/DL
MEAN CORPUSCULAR VOLUME [5]: 61.75 fL
MONOCYTE [5]: 0.5%
NEUTROPHIL [5]: 18.5%
NUCLEATED RED BLOOD CELLS [5]: 1 /100WBC
PLATELET COUNT [5]: 1266.5 x10E3/uL
ALANINE AMINOTRANSFERASE [5]: 53.5 u/L
ALBUMIN [5]: 3 G/DL
ALKALINE PHOSPHATASE [5]: 320 u/L
ASPARTATE AMINOTRANSFERASE [5]: 129 u/L
BLOOD UREA NITROGEN [5]: 45 mg/dL
CARBON DIOXIDE [5]: 33 mmol/L
CHLORIDE [5]: 92.5 MEQ/L
CHOLESTEROL [5]: 60.5 mg/dL
CREATINE PHOSPHOKINASE [5]: 215 u/L
CREATININE [5]: 0.32 mg/dL
GLUCOSE [5]: 131 mg/dL
LACTATE DEHYDROGENASE [5]: 112.5 u/L
LIPASE [5]: 24.5 u/L
PHOSPHORUS [5]: 11.45 mg/dL
POTASSIUM [5]: 5.66 MEQ/L
SODIUM [5]: 139.9 MEQ/L
TOTAL BILIRUBIN [5]: 0.15 mg/dL
TOTAL PROTEIN [5]: 5.8 G/DL
URIC ACID [5]: 1.05 mg/dL

Reference: ChEMBL document CHEMBL3885881, “DrugMatrix”
